The text below walks through data of ChEMBL document CHEMBL5360601, “Discovery of Potent, Dual-Inhibitors of Diacylglycerol Kinases Alpha and Zeta Guided by Phenotypic Optimization” (ACS Med Chem Lett, 2023).

The nature of series [1]: Metabolic stability in human liver microsomes assessed as parent compound remaining. The format is ADME, Microsome.
For series [2], the system named is Raji. As to the kind of experiment: IL2 production in PD-L1 negative human Raji cells measured after 24 hrs by Cell titer glo assay.
Series [3] can be described thus: Metabolic stability in mouse liver microsomes assessed as parent compound remaining. In kind it is ADME, Microsome.
In series [4] the test system is Raji. As to the kind of experiment: IL2 production in PD-L1 positive human Raji cells measured after 24 hrs by Cell titer glo assay.
A short description of series [5]: Induction of proliferation of human CD8-positive T cell measured after 24 hrs by Cell titer glo assay.
A short description of series [6]: Inhibition of DGK in human whole blood cell assessed as increase in IFNgamma level incubated for 1 hr followed by anti-human CD3/ antiCD28 mAB stimulation and measure after 24 hrs by AlphaLISA assay. The format is tissue-based.
Series [7] concerns the target T1, Diacylglycerol kinase alpha (Homo sapiens, UniProt P23743). As to the kind of experiment: Inhibition of human DGK alpha using 1, 2-Dilauroyl-sn-glycerol as substrate by ADP-Glo assay.
Series [8] deals with Diacylglycerol kinase gamma (Homo sapiens, UniProt P49619). As to the kind of experiment: Inhibition of human DGK gamma using 1, 2-Dilauroyl-sn-glycerol as substrate by ADP-Glo assay.
Diacylglycerol kinase gamma, sequence (P49619 whole entry): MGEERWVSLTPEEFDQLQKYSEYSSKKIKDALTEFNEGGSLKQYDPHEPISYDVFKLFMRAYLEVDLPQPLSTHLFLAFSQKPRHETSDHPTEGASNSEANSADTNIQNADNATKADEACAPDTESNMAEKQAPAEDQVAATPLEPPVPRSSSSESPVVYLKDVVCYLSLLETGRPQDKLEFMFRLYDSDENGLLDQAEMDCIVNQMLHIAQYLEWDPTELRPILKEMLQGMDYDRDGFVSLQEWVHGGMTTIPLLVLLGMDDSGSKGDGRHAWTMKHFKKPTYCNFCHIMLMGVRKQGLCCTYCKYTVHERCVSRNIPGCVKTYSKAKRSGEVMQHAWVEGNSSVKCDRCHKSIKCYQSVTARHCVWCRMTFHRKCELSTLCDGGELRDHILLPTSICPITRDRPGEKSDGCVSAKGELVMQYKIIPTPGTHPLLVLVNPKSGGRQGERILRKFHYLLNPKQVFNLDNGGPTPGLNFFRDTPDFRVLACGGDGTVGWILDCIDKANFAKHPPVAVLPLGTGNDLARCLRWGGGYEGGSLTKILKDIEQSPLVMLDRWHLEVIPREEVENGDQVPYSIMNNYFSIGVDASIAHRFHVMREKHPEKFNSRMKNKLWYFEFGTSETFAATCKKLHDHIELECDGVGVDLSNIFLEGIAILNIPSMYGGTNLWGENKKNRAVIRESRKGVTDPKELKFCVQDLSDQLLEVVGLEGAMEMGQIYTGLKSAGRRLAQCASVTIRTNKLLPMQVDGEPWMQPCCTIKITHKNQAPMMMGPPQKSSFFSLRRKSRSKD
Series [9] deals with Diacylglycerol kinase beta (Homo sapiens, UniProt Q9Y6T7). Description: Inhibition of human DGK beta using 1, 2-Dilauroyl-sn-glycerol as substrate by ADP-Glo assay.
Series [10] has as its target Diacylglycerol kinase zeta (Homo sapiens, UniProt Q13574). As to the kind of experiment: Inhibition of human DGK zeta using 1, 2-Dilauroyl-sn-glycerol as substrate by ADP-Glo kinase assay.
Series [11] deals with Diacylglycerol kinase iota (Homo sapiens, UniProt O75912). Description: Inhibition of human DGK iota using 1, 2-Dilauroyl-sn-glycerol as substrate by ADP-Glo kinase assay.
Diacylglycerol kinase iota, sequence (O75912 whole entry): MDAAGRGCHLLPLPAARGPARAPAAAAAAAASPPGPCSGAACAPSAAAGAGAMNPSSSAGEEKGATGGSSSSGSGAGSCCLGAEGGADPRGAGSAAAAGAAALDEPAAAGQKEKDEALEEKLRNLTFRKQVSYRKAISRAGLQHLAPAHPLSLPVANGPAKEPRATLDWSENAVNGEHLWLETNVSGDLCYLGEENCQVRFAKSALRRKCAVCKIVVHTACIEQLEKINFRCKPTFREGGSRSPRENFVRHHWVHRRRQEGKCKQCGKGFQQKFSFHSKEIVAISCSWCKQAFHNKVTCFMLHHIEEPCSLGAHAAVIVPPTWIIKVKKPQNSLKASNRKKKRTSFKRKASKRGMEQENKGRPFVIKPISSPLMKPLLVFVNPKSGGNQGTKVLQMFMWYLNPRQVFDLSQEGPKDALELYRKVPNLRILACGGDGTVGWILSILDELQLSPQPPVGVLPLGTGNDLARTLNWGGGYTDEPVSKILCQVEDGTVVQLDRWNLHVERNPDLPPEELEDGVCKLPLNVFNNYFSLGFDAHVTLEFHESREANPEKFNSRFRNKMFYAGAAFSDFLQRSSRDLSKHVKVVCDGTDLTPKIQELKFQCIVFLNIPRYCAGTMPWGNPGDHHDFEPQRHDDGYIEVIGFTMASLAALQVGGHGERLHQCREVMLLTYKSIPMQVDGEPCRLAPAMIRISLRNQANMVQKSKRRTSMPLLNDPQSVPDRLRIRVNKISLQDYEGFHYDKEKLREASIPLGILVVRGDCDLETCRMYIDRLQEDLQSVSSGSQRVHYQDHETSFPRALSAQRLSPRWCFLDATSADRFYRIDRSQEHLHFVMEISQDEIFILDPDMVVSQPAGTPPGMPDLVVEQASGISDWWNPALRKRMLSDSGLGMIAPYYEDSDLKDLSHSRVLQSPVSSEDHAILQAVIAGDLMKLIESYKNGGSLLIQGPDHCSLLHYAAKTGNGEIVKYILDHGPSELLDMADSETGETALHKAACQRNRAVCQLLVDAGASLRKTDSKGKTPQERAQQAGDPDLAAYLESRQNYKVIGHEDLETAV
The target of series [12] is T2, Diacylglycerol kinase kappa (Homo sapiens, UniProt Q5KSL6).
T2 sequence (Q5KSL6 whole entry): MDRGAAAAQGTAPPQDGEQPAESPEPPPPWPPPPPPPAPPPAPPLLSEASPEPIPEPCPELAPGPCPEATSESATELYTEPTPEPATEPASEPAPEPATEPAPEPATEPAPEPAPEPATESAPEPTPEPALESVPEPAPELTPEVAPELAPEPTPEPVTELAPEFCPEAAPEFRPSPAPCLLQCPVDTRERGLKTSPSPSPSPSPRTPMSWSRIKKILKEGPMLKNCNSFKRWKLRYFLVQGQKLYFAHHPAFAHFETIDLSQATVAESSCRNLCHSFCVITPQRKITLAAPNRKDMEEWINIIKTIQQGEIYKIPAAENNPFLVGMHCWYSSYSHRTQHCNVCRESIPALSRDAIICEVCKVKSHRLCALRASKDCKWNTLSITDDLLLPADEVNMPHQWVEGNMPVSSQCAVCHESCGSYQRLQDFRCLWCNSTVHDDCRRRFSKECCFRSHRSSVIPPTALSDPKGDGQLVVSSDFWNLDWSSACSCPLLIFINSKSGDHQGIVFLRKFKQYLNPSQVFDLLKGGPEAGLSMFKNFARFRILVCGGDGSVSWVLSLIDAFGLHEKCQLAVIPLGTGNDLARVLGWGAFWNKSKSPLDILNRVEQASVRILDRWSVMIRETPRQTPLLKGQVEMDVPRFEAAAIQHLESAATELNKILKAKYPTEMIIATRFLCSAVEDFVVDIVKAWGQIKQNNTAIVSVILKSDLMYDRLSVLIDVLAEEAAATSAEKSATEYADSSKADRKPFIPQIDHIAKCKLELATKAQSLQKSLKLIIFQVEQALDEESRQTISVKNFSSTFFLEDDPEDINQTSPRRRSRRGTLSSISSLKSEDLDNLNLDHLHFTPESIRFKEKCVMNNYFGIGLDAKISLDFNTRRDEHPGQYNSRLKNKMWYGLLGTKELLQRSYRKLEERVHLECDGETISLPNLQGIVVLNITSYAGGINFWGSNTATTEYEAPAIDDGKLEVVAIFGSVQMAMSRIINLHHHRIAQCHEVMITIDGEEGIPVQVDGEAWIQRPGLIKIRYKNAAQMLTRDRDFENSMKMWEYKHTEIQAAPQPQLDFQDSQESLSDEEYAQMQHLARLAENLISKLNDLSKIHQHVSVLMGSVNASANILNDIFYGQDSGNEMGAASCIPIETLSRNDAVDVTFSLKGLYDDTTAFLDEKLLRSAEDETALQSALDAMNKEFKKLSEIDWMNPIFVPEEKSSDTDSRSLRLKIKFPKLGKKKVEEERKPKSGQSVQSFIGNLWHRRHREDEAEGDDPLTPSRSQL
As to the kind of experiment: Inhibition of human DGK kappa using 1, 2-Dilauroyl-sn-glycerol as substrate by ADP-Glo kinase assay.

The nature of series [13]: Inhibition of DGK in human whole blood cell assessed as increase in pERK level incubated for 1 hr followed by anti-human CD3 stimulation and measure after 15 mins by AlphaLISA assay. In kind it is tissue-based.
In series [14] the target is T1, Diacylglycerol kinase alpha. As to the kind of experiment: Inhibition of DGK alpha (unknown origin).

Diacylglycerol kinase zeta, sequence (Q13574 whole entry): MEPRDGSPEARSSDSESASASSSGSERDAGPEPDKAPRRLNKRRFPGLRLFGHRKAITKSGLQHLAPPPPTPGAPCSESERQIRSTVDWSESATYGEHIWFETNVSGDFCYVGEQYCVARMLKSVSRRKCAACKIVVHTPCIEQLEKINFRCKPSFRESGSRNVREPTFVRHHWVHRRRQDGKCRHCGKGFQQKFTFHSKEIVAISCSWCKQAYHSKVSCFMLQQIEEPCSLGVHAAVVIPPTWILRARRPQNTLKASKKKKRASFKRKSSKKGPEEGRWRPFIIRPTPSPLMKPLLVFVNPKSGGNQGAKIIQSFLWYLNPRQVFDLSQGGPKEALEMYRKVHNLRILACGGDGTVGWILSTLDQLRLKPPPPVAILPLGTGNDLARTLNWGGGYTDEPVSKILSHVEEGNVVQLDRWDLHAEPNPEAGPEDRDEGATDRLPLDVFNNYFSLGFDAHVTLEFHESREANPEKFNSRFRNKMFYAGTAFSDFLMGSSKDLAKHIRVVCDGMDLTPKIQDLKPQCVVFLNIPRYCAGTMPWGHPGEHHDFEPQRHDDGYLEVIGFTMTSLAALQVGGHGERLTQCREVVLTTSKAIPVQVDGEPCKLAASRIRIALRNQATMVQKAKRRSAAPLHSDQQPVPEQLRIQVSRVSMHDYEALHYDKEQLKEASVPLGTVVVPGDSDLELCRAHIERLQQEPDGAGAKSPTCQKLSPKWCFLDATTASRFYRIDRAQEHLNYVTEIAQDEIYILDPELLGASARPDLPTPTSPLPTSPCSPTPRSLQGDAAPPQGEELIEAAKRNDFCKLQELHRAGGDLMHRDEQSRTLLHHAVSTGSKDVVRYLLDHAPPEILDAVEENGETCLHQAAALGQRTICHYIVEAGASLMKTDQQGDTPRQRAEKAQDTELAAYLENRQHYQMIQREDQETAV
T1 sequence (P23743 whole entry): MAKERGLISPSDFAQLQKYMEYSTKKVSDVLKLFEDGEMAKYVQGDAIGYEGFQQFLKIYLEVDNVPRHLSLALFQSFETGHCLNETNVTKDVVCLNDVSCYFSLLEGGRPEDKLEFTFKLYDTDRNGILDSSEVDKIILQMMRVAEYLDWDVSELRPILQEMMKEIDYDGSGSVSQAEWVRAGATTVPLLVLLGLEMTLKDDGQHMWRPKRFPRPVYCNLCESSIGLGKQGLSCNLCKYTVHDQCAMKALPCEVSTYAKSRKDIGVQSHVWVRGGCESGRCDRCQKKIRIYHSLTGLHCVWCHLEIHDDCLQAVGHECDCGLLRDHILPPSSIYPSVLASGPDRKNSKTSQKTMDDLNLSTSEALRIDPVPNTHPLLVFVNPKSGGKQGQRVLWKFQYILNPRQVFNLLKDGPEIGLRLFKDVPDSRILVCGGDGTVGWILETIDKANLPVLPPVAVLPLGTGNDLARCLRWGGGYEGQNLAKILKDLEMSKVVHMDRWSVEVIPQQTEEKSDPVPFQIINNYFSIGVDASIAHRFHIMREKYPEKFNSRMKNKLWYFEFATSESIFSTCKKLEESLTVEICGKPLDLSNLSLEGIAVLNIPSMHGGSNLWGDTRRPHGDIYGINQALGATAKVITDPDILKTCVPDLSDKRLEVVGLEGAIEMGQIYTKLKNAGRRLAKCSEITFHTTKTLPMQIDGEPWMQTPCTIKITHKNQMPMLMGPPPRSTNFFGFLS

`COc1ccc2c(c1)c(N1CCN(C(c3ccc(F)cc3)c3ccc(F)cc3)CC1)c([N+](=O)[O-])c(=O)n2C`: the Stability in series [1] worked out at 79%; in [3] it was 8%. The values for the EC50 with Raji [2] and in the series on Raji [4] were 1.2 µM and 0.63 µM, respectively.
As to `O=c1c2ccccc2[nH]c(=S)n1CCN1CCC(=C(c2ccc(F)cc2)c2ccc(F)cc2)CC1` [DIACYLGLYCEROL KINASE INHIBITOR II], the concentration for a half-maximal effect (EC50) in [5] and in series [6] was above 10 µM throughout. The IC50 is 4.3 µM in [7]; 3.4 µM in series [8]; above 10 µM in series [9]; above 10 µM in series [10]; above 10 µM in series [11].
On to `Cn1c(=O)c([N+](=O)[O-])c(N2CCN(C(c3ccc(F)cc3)c3ccc(F)cc3)CC2)c2cc(C#N)ccc21`, for which the Stability was found to be 97% in series [1] and 93% in series [3]. The values for the concentration for half-maximal inhibition (IC50) in series [7], in series [10] and in [11] were 0.034 µM, 10 µM and 6.2 µM, respectively. The values for the half-maximal effective concentration (EC50) in the series with Raji [2] and in the series on Raji [4] were 0.12 µM and 0.13 µM, respectively.
`Cn1c(=O)c(C(=O)C(F)(F)F)c(N2CCN(C(c3ccccc3)c3ccccc3)CC2)c2ccccc21`: the figures for the Stability in series [1] and in series [3] were 75% and 63%, respectively. The EC50 in the series on Raji [2] was determined as 5.8 µM; in the series on Raji [4] it was 7.1 µM.
As to `Cn1c(=O)c([N+](=O)[O-])c(N2CCN(C(c3ccccc3)c3ccccc3)CC2)c2ccccc21`, the IC50 was above 10 µM in series [12]; 0.015 µM in series [7]; 1.9 µM in [8]; 2.5 µM in series [9]; above 10 µM in series [10]; above 10 µM in series [11]. Moreover, the EC50 is above 20 µM in [13], above 20 µM in series [6], 2.4 µM in the series with Raji [2] and 3.2 µM in the series with Raji [4]. Also, the Stability in [1] amounted to 93%; in series [3], 82%.
On to `Cn1c(=O)c([N+](=O)[O-])c(N2CCN(C(c3ccc(F)cc3)c3ccc(F)cc3)CC2)c2ncccc21`, for which the Stability in series [1] was determined as 92%; in series [3] it was 88%. The 50% inhibitory concentration (IC50) in series [7] came out at 0.053 µM; in series [10], 2.7 µM; in [11] it was 1 µM. The concentration giving a half-maximal response (EC50) with Raji [2] is 0.31 µM; in the series on Raji [4], 0.29 µM.
Regarding `CCOC(=O)c1c(N2CCN(C(c3ccccc3)c3ccccc3)CC2)c2ccccc2n(C)c1=O`, the figures for the Stability in series [1] and in series [3] were 49% and 52%, respectively. Also, the half-maximal effective concentration (EC50) was 20 µM in the series with Raji [2] and 4.1 µM in the series on Raji [4].
The corresponding values for `Cn1c(=O)c([N+](=O)[O-])c(N2CCN(C(c3ccc(F)cc3)c3ccc(F)cc3)CC2)c2cnccc21` are 100%, 63%, 0.84 µM and 0.56 µM.
Turning to `Cn1c(=O)c([N+](=O)[O-])c(N2CCN(C(c3ccc(F)cc3)c3ccc(F)cc3)CC2)c2cccnc21`, the concentration giving a half-maximal response (EC50) with Raji [2] turned out to be 13 µM; in the series with Raji [4], 7.7 µM.
On the same counts, the results for `Cn1c(=O)c(C(=O)O)c(N2CCN(C(c3ccccc3)c3ccccc3)CC2)c2ccccc21` are above 100 µM and above 100 µM.
Turning to `Cn1c(=O)c(C#N)c(N2CCN(C(c3ccc(F)cc3)c3ccc(F)cc3)CC2)c2cc(F)ccc21`, the Stability in [1] is 84%. Also, the EC50 with Raji [2] was found to be 1.1 µM; in the series with Raji [4], 0.61 µM.
As to `CCn1c(=O)c([N+](=O)[O-])c(N2CCN(C(c3ccc(F)cc3)c3ccc(F)cc3)CC2)c2ccccc21`, the EC50 in the series on Raji [2] and in the series with Raji [4] was above 100 µM each time.
With `O=c1[nH]c2ccccc2c(N2CCN(C(c3ccc(F)cc3)c3ccc(F)cc3)CC2)c1[N+](=O)[O-]`, the values for the concentration for a half-maximal effect (EC50) with Raji [2] and with Raji [4] were above 100 µM and above 33 µM, respectively.
On the same counts, the results for `CCCN1CCN(c2c([N+](=O)[O-])c(=O)n(C)c3ccccc23)CC1` are above 100 µM and above 100 µM.
`COc1ccc2c(n1)c(N1CCN(C(c3ccc(F)cc3)c3ccc(F)cc3)CC1)c(C#N)c(=O)n2C`: the Stability in [1] was 100%; in series [3], 43%. Further, the results for the EC50 with Raji [2] and with Raji [4] were 0.4 µM and 0.39 µM, respectively.
On the same counts, the results for `CC(c1ccccc1)N1CCN(c2c([N+](=O)[O-])c(=O)n(C)c3ccccc23)CC1` (stereo not given) are 25%, 4%, 9.28 µM and 6.39 µM.
On the same counts, the results for `Cn1c(=O)c([N+](=O)[O-])c(N2CCN(CCc3ccccc3)CC2)c2ccccc21` are 28%, 6%, above 100 µM and above 100 µM.
Take `Cc1nc2sccn2c(=O)c1CCN1CCC(=C(c2ccccc2)c2ccc(F)cc2)CC1`: the IC50 in [14] was found to be 25.4 µM.
In the case of `Cn1c(=O)c([N+](=O)[O-])c(N2CCN(C(c3ccc(F)cc3)c3ccc(F)cc3)CC2)c2ccc(F)cc21`, the figures for the EC50 with Raji [2] and in the series on Raji [4] were 1.8 µM and 2.6 µM, respectively.
Consider `Cn1c(=O)c([N+](=O)[O-])c(N2CCN(C(c3ccc(F)cc3)c3ccc(F)cc3)CC2)c2cc(F)ccc21`, for which the Stability in [1] is reported as 89%; in [3], 77%. For the same compound, the EC50 in the series with Raji [2] was 0.49 µM; in the series on Raji [4], 0.34 µM.
As to `Cn1c(=O)c([N+](=O)[O-])c(N2CCN(Cc3ccccc3)CC2)c2cc(F)ccc21`, the values for the Stability in series [1] and in [3] were 43% and 8%, respectively. For the same compound, the EC50 in the series on Raji [2] was found to be 2.5 µM; in the series on Raji [4], 1.5 µM.
`Cn1c(=O)c([N+](=O)[O-])c(N2CCN(C(c3ccc(F)cc3)c3ccc(F)cc3)CC2)c2ccccc21`: the Stability in [1] is listed as 86%; in series [3], 84%. In addition, the 50% effective concentration (EC50) amounted to 3.7 µM with Raji [2] and 1.5 µM in the series with Raji [4].
As to `Cn1c(=O)c(C#N)c(N2CCN(C(c3ccc(F)cc3)c3ccc(F)cc3)CC2)c2nc(C#N)ccc21`, the Stability was determined as 92% in series [1] and 80% in series [3]. Also, the results for the EC50 in the series with Raji [2] and with Raji [4] were 0.067 µM and 0.19 µM, respectively.
In series [7], `O=C1/C(=C/C=C/c2ccco2)SC(=S)N1NS(=O)(=O)c1ccccc1` showed an IC50 of 0.6 µM.
With `CN(C)c1ccc2c(c1)c(N1CCN(C(c3ccc(F)cc3)c3ccc(F)cc3)CC1)c([N+](=O)[O-])c(=O)n2C`, the results for the Stability in series [1] and in series [3] were 69% and 5%, respectively. Besides, the EC50 in the series on Raji [2] came to 0.76 µM; with Raji [4] it was 0.67 µM.
On the same counts, the results for `C#CCCC1(CCCN2CCN(c3c([N+](=O)[O-])c(=O)n(C)c4ccc(Br)nc34)CC2)N=N1` are 10%, below 1%, 0.37 µM and 0.42 µM.
For `CC(=O)c1c(N2CCN(C(c3ccccc3)c3ccccc3)CC2)c2ccccc2n(C)c1=O`, the results for the EC50 in the series with Raji [2] and with Raji [4] were 13 µM and 8.5 µM, respectively.
For the compound `Cn1c(=O)c(C#N)c(N2CCN(C(c3ccccc3)c3ccccc3)CC2)c2ccccc21`, the EC50 is 1.24 µM in the series with Raji [2] and 1.37 µM in the series on Raji [4].
With `Cn1c(=O)cc(N2CCN(C(c3ccccc3)c3ccccc3)CC2)c2ccccc21`, the Stability is 93% in [1] and 63% in series [3]. The results for the EC50 in the series on Raji [2] and in the series on Raji [4] were above 16 µM and above 5 µM, respectively.
